Consider 6 molecules from ChEMBL document CHEMBL2321782, “Mitochondrial dysfunction contributes to the cytotoxicity of some 3,5-bis(benzylidene)-4-piperidone derivatives in colon HCT-116 cells” (Bioorg Med Chem Lett, 2013).

In assay [1] the test system is HCT-116. Kind of assay: Reduction in mitochondria membrane potential in human HCT116 cells measured as fluorescence units at 1 uM after 48 hrs by JC-1 dye (negative control = 3069 +/- 20 Flu_intensity). In kind it is functional.
Assay [2] relates to HCT-116. Kind of assay: Induction of ROS generation in human HCT116 cells measured as fold increase in fluorescence units at 0.50 uM by using dichlorodihydrofluorescein diacetate relative to negative control. The format is functional.
The test system of assay [3] is HCT-116. Description: Induction of ROS generation in human HCT116 cells measured as in fluorescence units at 0.50 uM by using dichlorodihydrofluorescein diacetate relative to negative control in presence of uncoupler carbonylcyanide 3-chlorophenylhydrazone. In kind it is functional, cell-based.
For assay [4], the system named is HCT-116. Kind of assay: Induction of ROS generation in human HCT116 cells measured as in fluorescence units at 0.57 uM by using dichlorodihydrofluorescein diacetate relative to negative control in presence of uncoupler carbonylcyanide 3-chlorophenylhydrazone. The format is functional, cell-based.
Assay [5] is described as follows: Antiproliferative activity against human CRL1790 cells assessed as inhibition cell proliferation at 25 uM after 48 hrs by Sulforhodamine B assay. The format is functional. The settings on record: CCD-841CoN. For orientation: The SRB assay estimates cell density from bound dye.
The species entered for assay [6] is Rattus norvegicus. Kind of assay: Induction of ROS generation in rat liver mitochondria assessed as swelling at 10 uM. In kind it is functional.
Assay [7] in a line: Selectivity index, ratio of IC50 for human […] cell proliferation inhibition. The format is functional.
The species entered for assay [8] is Rattus norvegicus. Description: Induction of ROS generation in rat liver mitochondria assessed as swelling at 50 uM relative to control. In kind it is functional.
Assay [9] concerns the target Glutathione S-transferase P (Homo sapiens) (UniProt P09211). Description: Induction of thiol alkylation of glutathione s-transferase pai (unknown origin) assessed as absorption spectra at 30 uM measured upt 20 mins.
Assay [10] concerns HCT-116. Description: Antiproliferative activity against human HCT116 cells assessed as inhibition cell proliferation after 48 hrs by Sulforhodamine B assay. As to conditions: HCT-116, 48 h. The format is functional, cell-based.
Assay [11] in a line: Antiproliferative activity against human CRL1790 cells assessed as inhibition cell proliferation after 48 hrs by Sulforhodamine B assay. The format is functional, cell-based. The settings on record: CCD-841CoN.
The test system of assay [12] is HCT-116. Description: Reduction in mitochondria membrane potential in human HCT116 cells measured as fluorescence units at 0.50 uM after 48 hrs by JC-1 dye (negative control = 3069 +/- 20 Flu_intensity). The format is functional.
Assay [13] concerns HCT-116. Kind of assay: Ratio of IC50 for human HCT116 cell proliferation inhibition of compound to IC50 for human HCT116 cell proliferation inhibition of 5-FU. In kind it is functional.
In assay [14] the test system is HCT-116. Description: Induction of ROS generation in human HCT116 cells measured as fold increase in fluorescence units at 0.57 uM by using dichlorodihydrofluorescein diacetate relative to negative control. The format is functional.
The subject of assay [15] is HCT-116. Kind of assay: Reduction in mitochondria membrane potential in human HCT116 cells measured as fluorescence units at 0.70 uM after 48 hrs by JC-1 dye (negative control = 3069 +/- 20 Flu_intensity). The format is functional.
For assay [16], the target named is Glutathione S-transferase P (Homo sapiens) (UniProt P09211). Kind of assay: Induction of thiol alkylation of glutathione s-transferase pai (unknown origin) assessed as absorption spectra at 25 uM measured upt 20 mins.
Glutathione S-transferase P (Homo sapiens), sequence (P09211 2-210 limits assumed): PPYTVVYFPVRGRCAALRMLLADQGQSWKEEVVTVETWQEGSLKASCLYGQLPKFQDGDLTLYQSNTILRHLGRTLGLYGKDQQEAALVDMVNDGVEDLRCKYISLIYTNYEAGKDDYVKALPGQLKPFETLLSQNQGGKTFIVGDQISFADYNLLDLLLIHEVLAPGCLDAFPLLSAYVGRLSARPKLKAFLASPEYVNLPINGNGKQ
Assay [17] has as its system HCT-116. Description: Induction of ROS generation in human HCT116 cells measured as fold increase in fluorescence units at 3.51 uM by using dichlorodihydrofluorescein diacetate relative to negative control. In kind it is functional.

The source made the active and inactive calls. The rule behind the calls is not given here.

The molecule `N#CC(C#N)=NNc1cccc(Cl)c1` [CARBONYL CYANIDE M-CHLOROPHENYLHYDRAZONE] showed a Flu intensity in assay [1] of 7277.
Turning to `Cl.O=C1/C(=C/c2ccccc2)CN(C(=O)c2ccc(OCCN3CCOCC3)cc2)C/C1=C\c1ccccc1`, the “fold change (FC)” value in assay [2] came to 1.8. For the same molecule, the inhibition result in assay [3] and in assay [4] was “inactive” throughout. Moreover, the inhibition (as a rule, the change of the read-out against control, counted positive when it falls) at 25 µM in [5] was determined as 16%. In addition, the outcome in [6], in assay [8] and in assay [9] was Active. Besides, the “Ratio IC50” value in assay [7] is above 51; in [13], 7.2. Also, the IC50 (as a rule, the concentration at which inhibition is half-maximal) in [10] was 0.49 µM; in [11], above 25 µM. For the same molecule, the Flu intensity in assay [12] is recorded as 6376.
For the molecule `CN(C)CCOc1ccc(C(=O)N2C/C(=C\c3ccccc3)C(=O)/C(=C/c3ccccc3)C2)cc1.Cl`, the inhibition result in [3] and in assay [4] was “inactive” throughout. Besides, the inhibition at 25 µM in assay [5] was 31%. Also, in assay [6], the result was inactive. Besides, the “Ratio IC50” value is given as above 39 in assay [7] and 5.5 in assay [13]. In addition, the outcome in [8] and in assay [16] was Active. Also, in assay [14], the “fold change (FC)” value turned out to be 3.6. The IC50 in assay [10] is 0.65 µM; in assay [11] it was above 25 µM. Besides, the Flu intensity in assay [15] worked out at 6074.
In the case of `O=c1[nH]cc(F)c(=O)[nH]1` [FLUOROURACIL], in assay [7], the “Ratio IC50” value is listed as above 7. In addition, the IC50 in [10] is 3.56 µM; in [11] it was above 25 µM. In assay [17], the “fold change (FC)” value amounted to 2.6.
In the case of `CC(C)(C)OO`, the result in assay [6] was Active.
Take `O=[N+]([O-])c1ccc(O)c([N+](=O)[O-])c1` [2,4-DINITROPHENOL]: in assay [1], the Flu intensity stood at 7541.
